# Assay results from patent publication US9938273B2 (Plexxikon Inc., priority 2015, dated 2018).
# Target: T1, FLT3-ITD (Homo sapiens, UniProt P36888)
# T1 sequence (P36888 1-993): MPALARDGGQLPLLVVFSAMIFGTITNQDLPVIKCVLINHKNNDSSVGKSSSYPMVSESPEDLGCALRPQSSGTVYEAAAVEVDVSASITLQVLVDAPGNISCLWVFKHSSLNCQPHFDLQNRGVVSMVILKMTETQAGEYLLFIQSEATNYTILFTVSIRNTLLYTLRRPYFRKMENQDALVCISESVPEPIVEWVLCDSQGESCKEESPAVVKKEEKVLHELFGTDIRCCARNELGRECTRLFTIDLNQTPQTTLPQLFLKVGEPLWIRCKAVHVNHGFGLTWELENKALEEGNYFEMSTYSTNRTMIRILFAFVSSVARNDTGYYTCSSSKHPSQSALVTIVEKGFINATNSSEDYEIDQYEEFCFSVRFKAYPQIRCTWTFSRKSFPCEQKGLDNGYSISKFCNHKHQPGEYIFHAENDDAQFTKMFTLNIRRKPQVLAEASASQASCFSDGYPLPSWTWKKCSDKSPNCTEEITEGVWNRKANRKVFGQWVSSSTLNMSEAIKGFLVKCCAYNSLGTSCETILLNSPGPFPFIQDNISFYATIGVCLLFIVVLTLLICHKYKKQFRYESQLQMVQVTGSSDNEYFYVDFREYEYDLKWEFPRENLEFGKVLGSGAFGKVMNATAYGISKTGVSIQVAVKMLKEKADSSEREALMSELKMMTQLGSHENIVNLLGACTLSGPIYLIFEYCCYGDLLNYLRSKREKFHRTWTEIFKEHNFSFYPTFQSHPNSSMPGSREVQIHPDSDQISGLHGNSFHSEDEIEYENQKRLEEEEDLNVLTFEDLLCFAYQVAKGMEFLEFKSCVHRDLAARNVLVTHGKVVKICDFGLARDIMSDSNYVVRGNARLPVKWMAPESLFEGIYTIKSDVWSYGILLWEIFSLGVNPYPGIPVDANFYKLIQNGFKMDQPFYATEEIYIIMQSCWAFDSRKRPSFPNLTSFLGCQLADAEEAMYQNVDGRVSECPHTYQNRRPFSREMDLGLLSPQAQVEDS
# Assay: AlphaScreen kinase assay with recombinant enzyme, FLT3-ITD
# Assay type: biochemical
# Conditions: 8pt; read-out: FLT3_ITD 8pt: IC50
# Procedure: In order to determine the effect of compounds on FLT3 catalytic activity, kinase assays using recombinant enzymes and AlphaScreen® technology have been established. The catalytic activity of c-kit activity was also measured to determine selectivity of the compounds. When the kinases are catalytically active, they phosphorylate a biotinylated peptide substrate on tyrosine residues. Using AlphaScreen® technology, the ability of the compounds to affect the catalytic activity of the kinases can be measured quantitatively. The peptide substrate is immobilized by the AlphaScreen® Streptavidin Donor beads and, upon phosphorylation by a tyrosine kinase, can bind to AlphaScreen® Anti-Phosphotyrosine (PY20) Acceptor beads. Upon excitation of these beads with laser light at 680 nm, singlet oxygen is produced. This singlet oxygen is rapidly quenched, unless the AlphaScreen® Anti-Phosphotyrosine (PY20) Acceptor beads are in close proximity, in which case a proximity signal can be measured at 580 nm. In the presence of catalytic activity, there is a very strong proximity signal. Selective kinase inhibitors affect a decrease in this proximity signal through a decrease in tyrosine phosphorylation of the peptide substrate.
# The assay was performed as summarized below.
# Poly (Glu4-Tyr) Peptide, biotin conjugate [Biotin-GG(EEEEY)10EE] (SEQ ID NO: 4)
# Final concentration=30 nM
# Final concentration for IC50 determination=10 μM (FLT3-D835Y or FLT3-ITD) or 100 μM (c-KIT)
# AlphaScreen® Phosphotyrosine (PY20) Assay Kit
# Final concentration=10 μg/mL
# Dilute compounds in DMSO to 20× final concentration.
# Add 1 μl of compound to each well of 384 well reaction plate (Perkin Elmer #6005359).
# Mix enzyme and Poly (Glu4-Tyr) Peptide substrate at 1.33× final concentration in assay buffer.
# Mix ATP at 5× final concentration in assay buffer.
# Add 15 μL enzyme/substrate mixture to the reaction plate.
# Add 4 μL of ATP to the reaction plate.
# Mix Streptavidin Donor beads at 6× final concentration in Stop/Detection buffer.
# Add 5 μL Streptavidin Donor beads to the reaction plate. Centrifuge 1 minute, shake to mix, and incubate at room temperature for 20 minutes.
# Mix Anti-Phosphotyrosine (PY20) Acceptor beads at 6× final concentration in Stop/Detection buffer.
# Add 5 μL Anti-Phosphotyrosine (PY20) beads to the reaction plate.
# Centrifuge 1 minute, shake to mix, and incubate at room temperature for 60 minutes.
# Read plate on Wallac EnVision™ 2103 Multilabel Reader.
row,Structure (SMILES),IC50
1,"Cc1cc(C#N)ccc1-c1cc2cc(-c3cccc(C(=O)N4CCC(C#N)C4)n3)cnc2[nH]1 (stereo not drawn) [Compound P-0130, 1-[6-[2-(4-cyano-2-methyl-phenyl)-1H-pyrrolo[2,3-b]pyridin-5-yl]pyridine-2-carbonyl]pyrrolidine-3-carbonitrile]",0.0001 to 10 µM
2,"N#Cc1cccc(-c2cc3cc(-c4cccc(C(=O)N5CCC(C#N)C5)n4)cnc3[nH]2)c1 (stereo not drawn) [Compound P-0133, 1-[6-[2-(3-cyanophenyl)-1H-pyrrolo[2,3-b]pyridin-5-yl]pyridine-2-carbonyl]pyrrolidine-3-carbonitrile]",0.0001 to 10 µM
3,"CC(C)(C)OC(=O)N1CC=C(c2cc3cc(-c4cccc(C(=O)N5CCC(C#N)C5)n4)cnc3[nH]2)C1 (stereo not drawn) [Compound P-0135, tert-butyl 3-[5-[6-(3-cyanopyrrolidine-1-carbonyl)-2-pyridyl]-1H-pyrrolo[2,3-b]pyridin-2-yl]-2,5-dihydropyrrole-1-carboxylate]",0.0001 to 10 µM
4,"N#CC1(NC(=O)c2cccc(-c3cnc4[nH]c(-c5ccccc5)c(Cl)c4c3)n2)CC1 [Compound P-0139, 6-(3-chloro-2-phenyl-1H-pyrrolo[2,3-b]pyridin-5-yl)-N-(1-cyanocyclopropyl)pyridine-2-carboxamide]",0.0001 to 10 µM
5,"N#CC1CCN(C(=O)c2cccc(-c3cnc4[nH]c(C5=CCOCC5)c(Cl)c4c3)n2)C1 (stereo not drawn) [Compound P-0142, 1-[6-[3-chloro-2-(3,6-dihydro-2H-pyran-4-yl)-1H-pyrrolo[2,3-b]pyridin-5-yl]pyridine-2-carbonyl]pyrrolidine-3-carbonitrile]",0.0001 to 10 µM
6,"N#CCCNC(=O)c1cccc(-c2cnc3[nH]c(-c4ccccc4)c(I)c3c2)n1 [Compound P-0143, N-(2-cyanoethyl)-6-(3-iodo-2-phenyl-1H-pyrrolo[2,3-b]pyridin-5-yl)pyridine-2-carboxamide]",0.0001 to 10 µM
7,"N#CC1(CNC(=O)c2cccc(-c3cnc4[nH]c(-c5ccccc5)c(Cl)c4c3)n2)CC1 [Compound P-0148, 6-(3-chloro-2-phenyl-1H-pyrrolo[2,3-b]pyridin-5-yl)-N-[(1-cyanocyclopropyl)methyl]pyridine-2-carboxamide]",0.0001 to 10 µM
8,"O=C(NC1(C(F)(F)F)CCCC1)c1cccc(-c2cnc3[nH]c(-c4ccccc4)cc3c2)n1 [Compound P-0149, 6-(2-phenyl1H-pyrrolo[2,3-b]pyridin-5-yl)-N-[1-(trifluoromethyl)cyclopentyl]pyridine-2-carboxamide]",0.0001 to 10 µM
9,"O=C(NC1(CO)CC1)c1cccc(-c2cnc3[nH]c(-c4ccccc4)cc3c2)n1 [Compound P-0151, N-[1-(hydroxymethyl)cyclopropyl]-6-(2-phenyl-1H-pyrrolo[2,3-b]pyridin-5-yl)pyridine-2-carboxamide]",0.0001 to 10 µM
10,"CC(C)(C#N)CNC(=O)c1cccc(-c2cnc3[nH]c(-c4ccnc(C5CC5)c4)cc3c2)n1 [Compound P-0152, N-(2-cyano-2-methyl-propyl)-6-[2-(2-cyclopropyl-4-pyridyl)-1H-pyrrolo[2,3-b]pyridin-5-yl]pyridine-2-carboxamide]",0.0001 to 10 µM

# Other lines, results leading:
row,IC50,Structure (SMILES)
1,0.0001 to 10 µM,"O=C(c1cccc(-c2cnc3[nH]c(-c4ccccc4)cc3c2)n1)N1CCC(F)(F)C1 [Compound P-0093, (3,3-difluoropyrrolidin-1-yl)-[6-(2-phenyl-1H-pyrrolo[2,3-b]pyridin-5-yl)-2-pyridyl]methanone]"
2,0.0001 to 10 µM,"COC1CCN(C(=O)c2cccc(-c3cnc4[nH]c(-c5ccccc5)cc4c3)n2)C1 (stereo not drawn) [Compound P-0095, (3-methoxypyrrolidin-1-yl)-[6-(2-phenyl-1H-pyrrolo[2,3-b]pyridin-5-yl)-2-pyridyl]methanone]"
3,0.0001 to 10 µM,"CNC(=O)C1CCN(C(=O)c2cccc(-c3cnc4[nH]c(-c5ccccc5)cc4c3)n2)C1 (stereo not drawn) [Compound P-0096, N-methyl-1-[6-(2-phenyl-1H-pyrrolo[2,3-b]pyridin-5-yl)pyridine-2-carbonyl]pyrrolidine-3-carboxamide]"
4,0.0001 to 10 µM,"O=C(c1cccc(-c2cnc3[nH]c(-c4ccccc4)cc3c2)n1)N1CCC(n2ccnc2)C1 (stereo not drawn) [Compound P-0097, (3-imidazol-1-ylpyrrolidin-1-yl)-[6-(2-phenyl-1H-pyrrolo[2,3-b]pyridin-5-yl)-2-pyridyl]methanone]"
5,0.0001 to 10 µM,"N#CCCNC(=O)c1cccc(-c2cnc3[nH]c(-c4ccccc4)cc3c2)n1 [Compound P-0099, N-(2-cyanoethyl)-6-(2-phenyl-1H-pyrrolo[2,3-b]pyridin-5-yl)pyridine-2-carboxamide]"
6,0.0001 to 10 µM,"CC(C)(C#N)CNC(=O)c1cccc(-c2cnc3[nH]c(-c4ccccc4)cc3c2)n1 [Compound P-0100, N-(2-cyano-2-methyl-propyl)-6-(2-phenyl-1H-pyrrolo[2,3-b]pyridin-5-yl)pyridine-2-carboxamide]"
7,0.0001 to 10 µM,"N#CC1CCN(C(=O)c2cccc(-c3cnc4[nH]c(-c5ccccc5)cc4c3)n2)C1 (stereo not drawn) [Compound P-0105, 1-[6-(2-phenyl-1H-pyrrolo[2,3-b]pyridin-5-yl)pyridine-2-carbonyl]pyrrolidine-3-carbonitrile]"
8,0.0001 to 10 µM,"CS(=O)(=O)N1CCC(NS(=O)(=O)c2cccc(-c3cnc4[nH]c(-c5ccccc5)cc4c3)n2)C1 (stereo not drawn) [Compound P-0107, N-(1-methylsulfonylpyrrolidin-3-yl)-6-(2-phenyl-1H-pyrrolo[2,3-b]pyridin-5-yl)pyridine-2-sulfonamide]"
9,0.0001 to 10 µM,"N#C[C@H]1CCN(C(=O)c2cccc(-c3cnc4[nH]c(-c5ccccc5)cc4c3)n2)C1 [Compound P-0117, (3S)-1-[6-(2-phenyl-1H-pyrrolo[2,3-b]pyridin-5-yl)pyridine-2-carbonyl]pyrrolidine-3-carbonitrile]"
10,0.0001 to 10 µM,"CN(CCC#N)C(=O)c1cccc(-c2cnc3[nH]c(-c4ccccc4)cc3c2)n1 [Compound P-0119, N-(2-cyanoethyl)-N-methyl-6-(2-phenyl-1H-pyrrolo[2,3-b]pyridin-5-yl)pyridine-2-carboxamide]"
11,0.0001 to 10 µM,"N#CC1CCN(C(=O)c2cccc(-c3cnc4[nH]c(C5=CCCCC5)cc4c3)n2)C1 (stereo not drawn) [Compound P-0120, 1-[6-[2-(cyclohexen-1-yl)-1H-pyrrolo[2,3-b]pyridin-5-yl]pyridine-2-carbonyl]pyrrolidine-3-carbonitrile]"
12,0.0001 to 10 µM,"N#CCCNC(=O)c1cccc(-c2cnc3[nH]c(-c4ccccc4)c(Cl)c3c2)n1 [Compound P-0125, 6-(3-chloro-2-phenyl-1H-pyrrolo[2,3-b]pyridin-5-yl)-N-(2-cyanoethyl)pyridine-2-carboxamide]"
13,0.0001 to 10 µM,"CC(C)(C#N)CNC(=O)c1cccc(-c2cnc3[nH]c(-c4ccccc4)c(Br)c3c2)n1 [Compound P-0126, 6-(3-bromo-2-phenyl-1H-pyrrolo[2,3-b]pyridin-5-yl)-N-(2-cyano-2-methyl-propyl)pyridine-2-carboxamide]"
14,0.0001 to 10 µM,"CC(C)(C#N)CNC(=O)c1cccc(-c2cnc3[nH]c(-c4ccccc4)c(I)c3c2)n1 [Compound P-0127, N-(2-cyano-2-methyl-propyl)-6-(3-iodo-2-phenyl-1H-pyrrolo[2,3-b]pyridin-5-yl)pyridine-2-carboxamide]"
